# System: HEK293 cells
# Assay: Preliminary screening as mRNA vectors, EGFP mRNA transfection of HEK293 cells
# Assay type: cell-based
# Details: EGFP mRNA 50 ng per well, 96-well plates; percentage of GFP fluorescent cells relative to total number of cells (Hoechst)
# How it was run: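 Screening format: EGFP mRNA transfection (50 ng/well) into HEK293 in 10% FBS-supplemented DMEM. Percent green fluorescent cells, normalised to Hoechst nuclear count, gave the value; Lipofectamine2000 was the reference transfectant.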
row,SMILES,Absolute mRNA transfection efficiency in HEK293 cells
1,CCCCCCCCCCCCSc1nc(NCCCCCCC)nc(NCCCN2CCOCC2)n1 [Compound D8S12N7],1.5%
2,CCCCCCCCCCCCSc1nc(NCCCCCCCC)nc(NCCCN2CCOCC2)n1 [Compound D8S12N8],2.3%
3,CCCCCCCCCCCCSc1nc(NCCCCCCCCC)nc(NCCCN2CCOCC2)n1 [Compound D8S12N9],2.3%
4,CCCCCCCCCCCCSc1nc(NCCCCCCCCCCC)nc(NCCCN2CCOCC2)n1 [Compound D8S12N11],0.4%
5,CCCCCCCCCCCCNc1nc(NCCCN2CCOCC2)nc(SCCCCCCCCCCCC)n1 [Compound D8S12N12],0.0%
6,CCCCCCCCCCCCCNc1nc(NCCCN2CCOCC2)nc(SCCCCCCCCCCCC)n1 [Compound D8S12N13],0.3%
7,CCCCCCCCCCCCCCCNc1nc(NCCCN2CCOCC2)nc(SCCCCCCCCCCCC)n1 [Compound D8S12N15],0.0%
8,CCCCCCCCCCCCCCCCNc1nc(NCCCN2CCOCC2)nc(SCCCCCCCCCCCC)n1 [Compound D8S12N16],0.7%
9,CCCCCCCCCCCCCCCCCCNc1nc(NCCCN2CCOCC2)nc(SCCCCCCCCCCCC)n1 [Compound D8S12N18],1.1%
10,CCCCCCCCCCCCCCSc1nc(NCCCCCC)nc(NCCCN2CCOCC2)n1 [Compound D8S14N6],9.2%
11,CCCCCCCCCCCCCCSc1nc(NCCCCCCC)nc(NCCCN2CCOCC2)n1 [Compound D8S14N7],3.1%
12,CCCCCCCCCCCCCCSc1nc(NCCCCCCCC)nc(NCCCN2CCOCC2)n1 [Compound D8S14N8],1.6%
13,CCCCCCCCCCCCCCSc1nc(NCCCCCCCCC)nc(NCCCN2CCOCC2)n1 [Compound D8S14N9],2.3%
14,CCCCCCCCCCCCCCSc1nc(NCCCCCCCCCCC)nc(NCCCN2CCOCC2)n1 [Compound D8S14N11],2.0%
15,CCCCCCCCCCCCCCSc1nc(NCCCCCCCCCCCC)nc(NCCCN2CCOCC2)n1 [Compound D8S14N12],1.3%
16,CCCCCCCCCCCCCCSc1nc(NCCCCCCCCCCCCC)nc(NCCCN2CCOCC2)n1 [Compound D8S14N13],1.4%
17,CCCCCCCCCCCCCCCNc1nc(NCCCN2CCOCC2)nc(SCCCCCCCCCCCCCC)n1 [Compound D8S14N15],0.0%
18,CCCCCCCCCCCCCCCCNc1nc(NCCCN2CCOCC2)nc(SCCCCCCCCCCCCCC)n1 [Compound D8S14N16],0.4%
19,CCCCCCCCCCCCCCCCCCNc1nc(NCCCN2CCOCC2)nc(SCCCCCCCCCCCCCC)n1 [Compound D8S14N18],0.3%
20,CCCCCCCCCCCCCCCSc1nc(NCCCCCC)nc(NCCCN2CCOCC2)n1 [Compound D8S15N6],3.5%

row,SMILES,Absolute mRNA transfection efficiency in HEK293 cells
1,CCCCCCCCCCCCCCCSc1nc(NCCCCCCC)nc(NCCCN2CCOCC2)n1 [Compound D8S15N7],2.2%
2,CCCCCCCCCCCCCCCSc1nc(NCCCCCCCC)nc(NCCCN2CCOCC2)n1 [Compound D8S15N8],2.9%
3,CCCCCCCCCCCCCCCSc1nc(NCCCCCCCCC)nc(NCCCN2CCOCC2)n1 [Compound D8S15N9],1.1%
4,CCCCCCCCCCCCCCCSc1nc(NCCCCCCCCCCC)nc(NCCCN2CCOCC2)n1 [Compound D8S15N11],1.1%
5,CCCCCCCCCCCCCCCSc1nc(NCCCCCCCCCCCC)nc(NCCCN2CCOCC2)n1 [Compound D8S15N12],0.3%
6,CCCCCCCCCCCCCCCSc1nc(NCCCCCCCCCCCCC)nc(NCCCN2CCOCC2)n1 [Compound D8S15N13],0.2%
7,CCCCCCCCCCCCCCCNc1nc(NCCCN2CCOCC2)nc(SCCCCCCCCCCCCCCC)n1 [Compound D8S15N15],0.1%
8,CCCCCCCCCCCCCCCCNc1nc(NCCCN2CCOCC2)nc(SCCCCCCCCCCCCCCC)n1 [Compound D8S15N16],0.4%
9,CCCCCCCCCCCCCCCCCCNc1nc(NCCCN2CCOCC2)nc(SCCCCCCCCCCCCCCC)n1 [Compound D8S15N18],0.4%
10,CCCCCCCCCCCCCCCCSc1nc(NCCCCCC)nc(NCCCN2CCOCC2)n1 [Compound D8S16N6],18.2%
11,CCCCCCCCCCCCCCCCSc1nc(NCCCCCCC)nc(NCCCN2CCOCC2)n1 [Compound D8S16N7],17.7%
12,CCCCCCCCCCCCCCCCSc1nc(NCCCCCCCC)nc(NCCCN2CCOCC2)n1 [Compound D8S16N8],17.8%
13,CCCCCCCCCCCCCCCCSc1nc(NCCCCCCCCC)nc(NCCCN2CCOCC2)n1 [Compound D8S16N9],2.1%
14,CCCCCCCCCCCCCCCCSc1nc(NCCCCCCCCCCC)nc(NCCCN2CCOCC2)n1 [Compound D8S16N11],3.6%
15,CCCCCCCCCCCCCCCCSc1nc(NCCCCCCCCCCCC)nc(NCCCN2CCOCC2)n1 [Compound D8S16N12],0.9%
16,CCCCCCCCCCCCCCCCSc1nc(NCCCCCCCCCCCCC)nc(NCCCN2CCOCC2)n1 [Compound D8S16N13],0.1%
17,CCCCCCCCCCCCCCCCSc1nc(NCCCCCCCCCCCCCCC)nc(NCCCN2CCOCC2)n1 [Compound D8S16N15],0.0%
18,CCCCCCCCCCCCCCCCNc1nc(NCCCN2CCOCC2)nc(SCCCCCCCCCCCCCCCC)n1 [Compound D8S16N16],0.0%
19,CCCCCCCCCCCCCCCCCCNc1nc(NCCCN2CCOCC2)nc(SCCCCCCCCCCCCCCCC)n1 [Compound D8S16N18],0.0%
20,CCCCCCCCCCCCCCCCCCSc1nc(NCCCCCC)nc(NCCCN2CCOCC2)n1 [Compound D8S18N6],1.0%

row,SMILES,Absolute mRNA transfection efficiency in HEK293 cells
1,CCCCCCCCCCCCCCCCCCSc1nc(NCCCCCCC)nc(NCCCN2CCOCC2)n1 [Compound D8S18N7],3.9%
2,CCCCCCCCCCCCCCCCCCSc1nc(NCCCCCCCC)nc(NCCCN2CCOCC2)n1 [Compound D8S18N8],0.5%
3,CCCCCCCCCCCCCCCCCCSc1nc(NCCCCCCCCC)nc(NCCCN2CCOCC2)n1 [Compound D8S18N9],0.2%
4,CCCCCCCCCCCCCCCCCCSc1nc(NCCCCCCCCCCC)nc(NCCCN2CCOCC2)n1 [Compound D8S18N11],1.9%
5,CCCCCCCCCCCCCCCCCCSc1nc(NCCCCCCCCCCCC)nc(NCCCN2CCOCC2)n1 [Compound D8S18N12],0.4%
6,CCCCCCCCCCCCCCCCCCSc1nc(NCCCCCCCCCCCCC)nc(NCCCN2CCOCC2)n1 [Compound D8S18N13],0.0%
7,CCCCCCCCCCCCCCCCCCSc1nc(NCCCCCCCCCCCCCCC)nc(NCCCN2CCOCC2)n1 [Compound D8S18N15],0.0%
8,CCCCCCCCCCCCCCCCCCSc1nc(NCCCCCCCCCCCCCCCC)nc(NCCCN2CCOCC2)n1 [Compound D8S18N16],0.0%
9,CCCCCCCCCCCCCCCCCCNc1nc(NCCCN2CCOCC2)nc(SCCCCCCCCCCCCCCCCCC)n1 [Compound D8S18N18],0.0%
10,CCCCCCNc1nc(NCCCN2CCN(C)CC2)nc(SCCCCCC)n1 [Compound D9S6N6],1.5%
11,CCCCCCCNc1nc(NCCCN2CCN(C)CC2)nc(SCCCCCC)n1 [Compound D9S6N7],2.6%
12,CCCCCCCCNc1nc(NCCCN2CCN(C)CC2)nc(SCCCCCC)n1 [Compound D9S6N8],2.5%
13,CCCCCCCCCNc1nc(NCCCN2CCN(C)CC2)nc(SCCCCCC)n1 [Compound D9S6N9],0.9%
14,CCCCCCCCCCCNc1nc(NCCCN2CCN(C)CC2)nc(SCCCCCC)n1 [Compound D9S6N11],11.9%
15,CCCCCCCCCCCCNc1nc(NCCCN2CCN(C)CC2)nc(SCCCCCC)n1 [Compound D9S6N12],4.9%
16,CCCCCCCCCCCCCNc1nc(NCCCN2CCN(C)CC2)nc(SCCCCCC)n1 [Compound D9S6N13],6.6%
17,CCCCCCCCCCCCCCCNc1nc(NCCCN2CCN(C)CC2)nc(SCCCCCC)n1 [Compound D9S6N15],11.9%
18,CCCCCCCCCCCCCCCCNc1nc(NCCCN2CCN(C)CC2)nc(SCCCCCC)n1 [Compound D9S6N16],29.6%
19,CCCCCCCCCCCCCCCCCCNc1nc(NCCCN2CCN(C)CC2)nc(SCCCCCC)n1 [Compound D9S6N18],24.0%

# Source: US20230123334A1, “AMINO LIPID COMPOUND, PREPARATION METHOD THEREFOR, AND APPLICATION THEREOF” (SHENZHEN SHENXIN BIOTECHNOLOGY CO., LTD., priority 2020, published 2023)
